Experimental data published in the SangsterLogP compilation.

Key:
[1] = method code SF-AS, from DOI: 10.1248/bpb1978.7.120, PMID: 6427444
[2] = method code SF-HPLC, from DOI: 10.1016/0731-7085(91)80215-u, PMID: 1821151; conditions: pH 7.4
[3] = method code SF, from DOI: 10.1021/jm00294a005, PMID: 5000561
[4] = method code SF-AS, from DOI: 10.1081/jlc-120022394
[5] = method code SF, from DOI: 10.1016/0165-1218(78)90089-7, PMID: 362190
[6] = method code SF-AS, from DOI: 10.1016/s0020-1693(00)85781-3
[7] = not given; remark: listed apart in the source
[8] = method code SF-HPLC, from DOI: 10.1016/s0006-2952(00)00420-2, PMID: 10974206
[9] = not given; remark: listed apart in the source
[10] = method code SF-AS, from DOI: 10.1248/cpb.17.2558
[11] = not given; remark: listed apart in the source
[12] = method code SF-HPLC, from DOI: 10.1002/jps.10112, PMID: 12115830; conditions: pH 7.4
[13] = method code SF-AS, from DOI: 10.1016/0304-4165(87)90236-4, PMID: 2889474

CCC1OC(=O)CC(O)C(C)C(O[C@H]2OC(C)C(O)C(N(C)C)C2O)C(CCN2CC(C)CC(C)C2)CC(C)C(=O)C=CC(C)=CC1COC1OC(C)C(O)C(OC)C1OC (stereo not given in full)
logP: 3.8

COC12C(COC(N)=O)C3=C(C(=O)C(C)=C(N)C3=O)N1CC1C2N1C(=O)OC1CCC2=CCC3C(CCC4(C)C(C(C)CCCC(C)C)CCC34)C2(C)CC1 (stereo not given)
logP [1]: 3.88

CCCCC(=O)OCC(c1cncn1C)C(CC)C(=O)OCC1CCCCC1 (stereo not given)
logD [2]: 5.56

CO[C@@H]1[C@@H](O[C@@H]2O[C@H](C)[C@@H](O[C@H]3C[C@@](C)(O)[C@@H](OC(C)=O)[C@H](C)O3)[C@H](N(C)C)[C@H]2O)[C@@H](CC=O)C[C@@H](C)[C@@H](O)/C=C/C=C/C[C@@H](C)OC(=O)C[C@H]1OC(C)=O
logP [3]: 0.88

CCOC(=O)C(=Cc1ccoc1)NC=O
logP [4]: 2.08

NC(=O)/C(=C\c1ccc([N+](=O)[O-])o1)c1ccco1
logP [5]: 0.15

CC(=O)c1ccc2c(c1)COCCOCCOCCOCCOCCOC2
logP [6]: -0.05

CCC(C(=O)OCc1ccccc1)C(COC(=O)c1ccccc1)c1cncn1C (stereo not given)
logD [2]: 4.57

CCCCCOC(=O)N1C2CN3C4=C(C(=O)C(N)=C(C)C4=O)C(COC(N)=O)C3(OC)C21 (stereo not given)
logP [1]: 2.45

FC(F)(Cl)C(F)(Cl)Cl
logP [7]: 3.16

CN(C)CCCNc1c2ccccc2[n+]([O-])c2ccccc12
logP [8]: 2.5

O=C1c2c(O)cccc2C(C(=O)c2ccc(O)cc2)c2cccc(O)c21
logP [9]: 3.11

NS(=O)(=O)c1ccc(Cl)c([N+](=O)[O-])c1
logD ([10]; pH 2.0): 1.91

c1ccc2c(c1)COCCOCCOCCOCCOCc1ccccc1COCCOCCOCCOCCOC2
logP [6]: 1.84

Cc1nc([N+](=O)[O-])cn1CCO
logP [5]: -0.59

COC12C(COC(N)=O)C3=C(C(=O)C(C)=C(N)C3=O)N1CC1C2N1C(=O)OCc1ccccc1 (stereo not given)
logP [1]: 2.05

O=C1c2c(O)cccc2C(C(=O)c2ccc3c(c2)OCO3)c2cccc(O)c21
logP [9]: 3.68

C[N+](C)([O-])CCCNc1c2ccccc2nc2cccc([N+](=O)[O-])c12
logP [8]: 1.4

CCC1OC(=O)CC(O)C(C)C(OC2OC(C)C(OC3C[C@@](C)(O)C(O)C(C)O3)C(N(C)C)C2O)C(CC=O)CC(C)C(=O)C=CC(C)=CC1COC1OC(C)C(O)C(OC)C1OC (stereo not given in full)
logP: 1.63

COC12C(COC(N)=O)C3=C(C(=O)C(C)=C(N)C3=O)N1CC1C2N1C(=O)Cc1ccccc1 (stereo not given)
logP [1]: 1.54

CC[C@H]1OC(=O)[C@H](C)[C@@H](O[C@H]2C[C@@](C)(OC)[C@@H](O)[C@H](C)O2)[C@H](C)[C@@H](O[C@@H]2O[C@H](C)C[C@H](N(C)C)[C@H]2O)[C@](C)(O)C[C@@H](C)C(N)[C@H](C)[C@H]2OC(=O)O[C@@]21C (stereo not given in full)
logP: 2.92

CN(C)CCCNc1c2ccccc2[n+]([O-])c2cccc([N+](=O)[O-])c12
logP [8]: 3.1

CCCCCCCCCOC(=O)N1[C@H]2[C@@H]1CN1C3=C(C(=O)C(N)=C(C)C3=O)[C@@H](COC(N)=O)[C@@]21OC
logP [1]: 3.56

CC(C)(C)c1ccncc1
logP [11]: 2.42

O=Cc1cccnc1
logP [11]: 0.29

CCOC(=O)C(=Cc1cccc(Cl)c1)NC=O
logP [4]: 2.51

O=C1c2c(O)cccc2C(C(=O)c2ccc(OCc3ccccc3)cc2)c2cccc(O)c21
logP [9]: 4.22

CC(O)C(C)SSc1ncc[nH]1 (stereo not given)
logD [12]: 1.39

CC[C@H]1OC(=O)C[C@@H](O)[C@H](C)[C@@H](O[C@@H]2O[C@H](C)[C@@H](O)[C@H](N(C)C)[C@H]2O)[C@@H](CC=O)C[C@@H](C)C(=O)/C=C/C(C)=C/[C@@H]1CO
logP: 0.99

CC(C)(C)SSc1ncc[nH]1
logD [12]: 2.56

CO[C@@H]1[C@@H](O[C@@H]2O[C@H](C)[C@@H](O[C@H]3C[C@@](C)(O)[C@@H](OC(C)=O)[C@H](C)O3)[C@H](N(C)C)[C@H]2O)[C@@H](CC=O)C[C@@H](C)[C@@H](O)/C=C\C=C/C[C@@H](C)OC(=O)C[C@H]1O
logP [3]: 0.88

CCC(=O)O[C@H]1[C@H](C)O[C@@H](O[C@H]2[C@H](N(C)C)[C@@H](O)[C@H](O[C@H]3[C@@H](CC=O)C[C@@H](C)[C@@H](O)/C=C/C=C/C[C@@H](C)OC(=O)C[C@@H](O)[C@@H]3OC)O[C@@H]2C)C[C@@]1(C)O
logP [3]: 1.38

CCCCC1CC(C(=O)NC(CC(C)O)C2OC(SC)C(O)C(O)C2O)N(C)C1 (stereo not given)
logP [3]: 0.56

CCC(C)SSc1ncc[nH]1 (stereo not given)
logD [12]: 2.76

CN(C)CCCNc1c2ccccc2nc2ccccc12
logP [8]: 3.6

C[N+](C)([O-])CCCNc1c2ccccc2nc2ccccc12
logP [8]: 0.4

CCCOC(=O)N1C2CN3C4=C(C(=O)C(N)=C(C)C4=O)C(COC(N)=O)C3(OC)C21 (stereo not given)
logP [1]: 1.51

CN(C)CCCNc1c2ccccc2nc2cccc([N+](=O)[O-])c12
logP [8]: 3.8

CCCCCCCCOC(=O)COc1ccc(Cl)cc1Cl
logP [7]: 5.86

C=C1C(=O)O[C@@H]2C[C@@H](C)[C@@H]3C=CC(=O)[C@@]3(C)[C@@H](OC(=O)CC(=O)O[C@H]3[C@@H]4C(=C)C(=O)O[C@@H]4C[C@@H](C)[C@@H]4C=CC(=O)[C@]43C)[C@H]12
logP [13]: 1.33

C=CCOCC(O)Cn1ccnc1[N+](=O)[O-] (stereo not given)
logP [5]: 0.3

Brc1ccncc1
logP [11]: 1.49

ClC(Cl)=C(c1ccc(Cl)cc1)c1ccc(Cl)cc1
logP [7]: 5.89

CCN(CC)CCCNC(=O)C(=O)NN=Cc1ccc([N+](=O)[O-])o1
logP [5]: -1.12

CC1=C2[C@@H](C[C@@H](C)[C@@H]3C=CC(=O)[C@@]3(C)[C@H]2O)OC1=O
logP [13]: 1.13

O=C1c2c(O)cccc2C(C(=O)c2cc(O)c(O)c(O)c2)c2cccc(O)c21
logP [9]: 2.44

CC(C)(C)c1ccc2c(c1)COCCOCCOCCOCCOCc1cc(C(C)(C)C)ccc1COCCOCCOCCOCCOC2
logP [6]: 3.32

C1CCCCCC2OC2CCCC1 (stereo not given)
logP [7]: 4.7

CCCC(=O)O[C@H]1[C@H](C)O[C@@H](O[C@H]2[C@H](N(C)C)[C@@H](O)[C@H](O[C@H]3[C@@H](CC=O)C[C@@H](C)[C@@H](O)/C=C/C=C/C[C@@H](C)OC(=O)C[C@@H](O)[C@@H]3OC)O[C@@H]2C)C[C@@]1(C)O
logP [3]: 1.88

CC1CC2OC(=O)C3(C)C2C(OC3(C)O)C2(C)C(=O)C=CC12 (stereo not given)
logP [13]: 0.3

Nc1nnc(S(N)(=O)=O)s1
logD ([10]; pH 5.5): -0.9

CCCC(=O)OC1C(C)OC(OC2C(C)OC(OC3C(CC=O)CC(C)C(O)/C=C\C=C\CC(C)OC(=O)CC(OC(C)=O)C3OC)C(O)C2N(C)C)CC1(C)O (stereo not given)
logP [3]: 1.88

CCOC(=O)C(=Cc1ccc2c(c1)OCO2)NC=O
logP [4]: 1.66

CCCCC(=O)OCC(c1cncn1C)C(CC)C(=O)OCc1ccccc1 (stereo not given)
logD [2]: 4.43

c1ccc2c(c1)COCCOCCOCCOCCOCCOC2
logP [6]: 0.15

O=C(O)c1ccc2c(c1)COCCOCCOCCOCCOCCOC2
logP [6]: -0.28

CO[C@H]1C[C@H](O[C@H]2[C@H](C)[C@@H](O[C@@H]3O[C@H](C)C[C@H](N(C)C)[C@H]3O)[C@@H](C)C[C@@]3(CO3)C(=O)[C@H](C)[C@@H](O)[C@@H](C)[C@@H](C)OC(=O)[C@@H]2C)O[C@@H](C)[C@@H]1O
logP: 1.69

CCC(C(=O)OCc1ccccc1)C(COC(C)=O)c1cncn1C (stereo not given)
logD [2]: 2.87

NS(=O)(=O)c1ccc([N+](=O)[O-])c(C(F)(F)F)c1
logD ([10]; pH 2.0): 1.73

Cc1cccc(S(N)(=O)=O)c1
logD ([10]; pH 2.0): 0.85

Nc1cccnc1
logP [11]: 0.05

O=C1c2c(O)cccc2C(C(=O)c2ccccc2)c2cccc(O)c21
logP [9]: 3.81

Cn1cnc([N+](=O)[O-])c1Cl
logP [5]: 0.3

CO[C@@H]1[C@@H](O[C@@H]2O[C@H](C)[C@@H](O[C@H]3C[C@@](C)(O)[C@@H](OC(=O)CC(C)C)[C@H](C)O3)[C@H](N(C)C)[C@H]2O)[C@@H](CC=O)C[C@@H](C)C(=O)/C=C/C2OC2C[C@@H](C)OC(=O)C[C@H]1OC(C)=O (stereo not given in full)
logP: 3.04

CCOC(=O)C(=Cc1ccccc1)NC=O
logP [4]: 2.48

CCOC(=O)C(=CC=Cc1ccccc1)NC=O
logP [4]: 2.91

CCC(C(=O)OCc1ccccc1)C(COC(=O)c1cccc(Cl)c1)c1cncn1C (stereo not given)
logD [2]: 5.64

O=C1c2c(O)cccc2C(C(=O)c2ccc(O)c(O)c2)c2cccc(O)c21
logP [9]: 2.79

Brc1cccnc1
logP [11]: 1.5

Cc1ccccc1S(N)(=O)=O
logD ([10]; pH 2.0): 0.84

CCC(=O)OCC(c1cncn1C)C(CC)C(=O)OCc1ccccc1 (stereo not given)
logD [2]: 3.3

CCOC(=O)C(=Cc1ccccc1Cl)NC=O
logP [4]: 2.41

C=C1C(=O)O[C@@H]2C[C@@H](C)[C@@H]3C4CC(=O)[C@]3(C[C@H]12)[C@@]1(C4)C(=O)O[C@@H]2C[C@@H](C)[C@@H]3C=CC(=O)[C@@]3(C)[C@@H](O)[C@@H]21
logP [13]: 1.66

ClC1=C(Cl)C(Cl)(Cl)C(Cl)=C1Cl
logP [7]: 5.04

c1ccc2c(c1)COCCOCCOCCOCCOC2
logP [6]: 0.7
